Results on 1 molecule are retold here after USRE38825E1, “Glyphosate tolerant plants” (Monsanto Technology LLC, priority 1990, dated 2005).

The test system of this assay is Pseudomonas sp. strain LBr glyphosate oxidoreductase. As to the kind of experiment: Km of glyphosate oxidoreductase from Pseudomonas sp. strain LBr. Format: biochemical. From the text: Using this PCR approach, glyphosate oxidoreductase genes from a number of sources have been isolated. The presence of the glyphosate oxidoreductase activity was confirmed by cloning the glyphosate oxidoreductase gene from chromosomal DNA prepared from Pseudomonas sp. strain LBr (Jacob et al., 1988) and using primers homologous to the N- and C-termini of the LBAA glyphosate oxidoreductase gene and containing the following suitable restriction cloning sites: 5′-[…] ATG-3′ (SEQ ID NO:13) and 5′-[…] AGTAC-3′ (SEQ ID NO:14). Cyclotherm parameters used for these PCR reactions is as follows: • Denature at 94° C. for 1 minute; • Anneal at 60° C. for 2 minutes; • Polymerize at 72° C. for 3 minutes, • 30 cycles, no autoextension, linked to 4° C. incubation. The expected ˜1.3 kb PCR produced was generated and following digestion with NdeI and HindIII, this fragment was cloned into pMON2123 for expression of the encoded enzyme.

The term Km denotes the substrate concentration at which the rate is half of its maximum. For `O=C(O)CNCP(=O)(O)O` [glyphosate, N-phosphonomethyl-glycine], the Km came out at 25 mM.
